In PubChem BioAssay AID2060602 (Molecular Pharmacology Branch, DTP, NCI, 2025):

System: 648629-189-R-J1-PDC complex spheroids viability
Assay: Anticancer human tumor 648629-189-R-J1-PDC patient-derived bladder carcinoma cell line growth inhibition [CLK]
Settings: for IC50: curve of first compound; for viability, T/C: stronger effect = lower value
How it was run: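 Patient-derived tumor cells grown as complex spheroids with HUVEC endothelial cells and mesenchymal stem cells, treated with drug combinations. Concentrations descend in half-log steps from near clinical Cmax, or from 10 microM if Cmax unknown.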
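Wherever viability, T/C is given: drug exposure lasted seven days before viability readout; 100% = DMSO vehicle control wells.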

C=CC(=O)Nc1cc(Nc2nccc(-c3cn(C)c4ccccc34)n2)c(OC)cc1N(C)CCN(C)C + CNC(=O)c1ccc(Nc2nc(OC3CCCC3)c3c(-c4ccc5nc(C)oc5c4)c[nH]c3n2)c(OC)c1
IC50 (second compound 0.0316 µM): > 300 nM | IC50 (second compound 0.1 µM): 132 nM | IC50 (second compound 0.316 µM): < 0.949 nM | IC50 (second compound 1 µM): < 0.949 nM | IC50 (second compound 3.16 µM): < 0.949 nM | IC50 (second compound 10 µM): < 0.949 nM | viability, T/C (second compound 0.0316 µM, first compound 0.000949 µM): 92.6% | viability, T/C (second compound 0.0316 µM, first compound 0.003 µM): 103% | viability, T/C (second compound 0.0316 µM, first compound 0.00949 µM): 102% | viability, T/C (second compound 0.0316 µM, first compound 0.03 µM): 97.1% | viability, T/C (second compound 0.0316 µM, first compound 0.0949 µM): 100% | viability, T/C (second compound 0.0316 µM, first compound 0.3 µM): 95.4% | viability, T/C (second compound 0.1 µM, first compound 0.000949 µM): 83.9% | viability, T/C (second compound 0.1 µM, first compound 0.003 µM): 73.5% | viability, T/C (second compound 0.1 µM, first compound 0.00949 µM): 69.3% | viability, T/C (second compound 0.1 µM, first compound 0.03 µM): 66.2% | viability, T/C (second compound 0.1 µM, first compound 0.0949 µM): 51% | viability, T/C (second compound 0.1 µM, first compound 0.3 µM): 42.6% | viability, T/C (second compound 0.316 µM, first compound 0.000949 µM): 27.9% | viability, T/C (second compound 0.316 µM, first compound 0.003 µM): 27.3% | viability, T/C (second compound 0.316 µM, first compound 0.00949 µM): 21.8% | viability, T/C (second compound 0.316 µM, first compound 0.03 µM): 19% | viability, T/C (second compound 0.316 µM, first compound 0.0949 µM): 22.1% | viability, T/C (second compound 0.316 µM, first compound 0.3 µM): 15.5% | viability, T/C (second compound 1 µM, first compound 0.000949 µM): 21.3% | viability, T/C (second compound 1 µM, first compound 0.003 µM): 19.4% | viability, T/C (second compound 1 µM, first compound 0.00949 µM): 23.2% | viability, T/C (second compound 1 µM, first compound 0.03 µM): 16.1% | viability, T/C (second compound 1 µM, first compound 0.0949 µM): 16.5% | viability, T/C (second compound 1 µM, first compound 0.3 µM): 13.2% | viability, T/C (second compound 3.16 µM, first compound 0.000949 µM): 18.7% | viability, T/C (second compound 3.16 µM, first compound 0.003 µM): 19.8% | viability, T/C (second compound 3.16 µM, first compound 0.00949 µM): 16.6% | viability, T/C (second compound 3.16 µM, first compound 0.03 µM): 16.1% | viability, T/C (second compound 3.16 µM, first compound 0.0949 µM): 16.3% | viability, T/C (second compound 3.16 µM, first compound 0.3 µM): 14.8% | viability, T/C (second compound 10 µM, first compound 0.000949 µM): 18.5% | viability, T/C (second compound 10 µM, first compound 0.003 µM): 22.1% | viability, T/C (second compound 10 µM, first compound 0.00949 µM): 22.6% | viability, T/C (second compound 10 µM, first compound 0.03 µM): 17.6% | viability, T/C (second compound 10 µM, first compound 0.0949 µM): 17.9% | viability, T/C (second compound 10 µM, first compound 0.3 µM): 13.8%

CC1(C)CCC(CN2CCN(c3ccc(C(=O)NS(=O)(=O)c4ccc(NCC5CCOCC5)c([N+](=O)[O-])c4)c(Oc4cnc5[nH]ccc5c4)c3)CC2)=C(c2ccc(Cl)cc2)C1 + CNC(=O)c1ccc(Nc2nc(OC3CCCC3)c3c(-c4ccc5nc(C)oc5c4)c[nH]c3n2)c(OC)c1
IC50 (second compound 0.0316 µM): > 10000 nM | IC50 (second compound 0.1 µM): > 10000 nM | IC50 (second compound 0.316 µM): < 31.6 nM | IC50 (second compound 1 µM): < 31.6 nM | IC50 (second compound 3.16 µM): < 31.6 nM | IC50 (second compound 10 µM): < 31.6 nM | viability, T/C (second compound 0.0316 µM, first compound 0.0316 µM): 100% | viability, T/C (second compound 0.0316 µM, first compound 0.1 µM): 114% | viability, T/C (second compound 0.0316 µM, first compound 0.316 µM): 108% | viability, T/C (second compound 0.0316 µM, first compound 1 µM): 106% | viability, T/C (second compound 0.0316 µM, first compound 3.16 µM): 85.3% | viability, T/C (second compound 0.0316 µM, first compound 10 µM): 103% | viability, T/C (second compound 0.1 µM, first compound 0.0316 µM): 86.5% | viability, T/C (second compound 0.1 µM, first compound 0.1 µM): 94% | viability, T/C (second compound 0.1 µM, first compound 0.316 µM): 93.4% | viability, T/C (second compound 0.1 µM, first compound 1 µM): 79.2% | viability, T/C (second compound 0.1 µM, first compound 3.16 µM): 71% | viability, T/C (second compound 0.1 µM, first compound 10 µM): 100% | viability, T/C (second compound 0.316 µM, first compound 0.0316 µM): 26.3% | viability, T/C (second compound 0.316 µM, first compound 0.1 µM): 30.1% | viability, T/C (second compound 0.316 µM, first compound 0.316 µM): 23.4% | viability, T/C (second compound 0.316 µM, first compound 1 µM): 25.6% | viability, T/C (second compound 0.316 µM, first compound 3.16 µM): 29.4% | viability, T/C (second compound 0.316 µM, first compound 10 µM): 19.9% | viability, T/C (second compound 1 µM, first compound 0.0316 µM): 20.7% | viability, T/C (second compound 1 µM, first compound 0.1 µM): 24.1% | viability, T/C (second compound 1 µM, first compound 0.316 µM): 20.2% | viability, T/C (second compound 1 µM, first compound 1 µM): 23.4% | viability, T/C (second compound 1 µM, first compound 3.16 µM): 26.5% | viability, T/C (second compound 1 µM, first compound 10 µM): 21.3% | viability, T/C (second compound 3.16 µM, first compound 0.0316 µM): 23.1% | viability, T/C (second compound 3.16 µM, first compound 0.1 µM): 23.3% | viability, T/C (second compound 3.16 µM, first compound 0.316 µM): 23.9% | viability, T/C (second compound 3.16 µM, first compound 1 µM): 20.2% | viability, T/C (second compound 3.16 µM, first compound 3.16 µM): 21.6% | viability, T/C (second compound 3.16 µM, first compound 10 µM): 17.3% | viability, T/C (second compound 10 µM, first compound 0.0316 µM): 20.9% | viability, T/C (second compound 10 µM, first compound 0.1 µM): 20.7% | viability, T/C (second compound 10 µM, first compound 0.316 µM): 19.9% | viability, T/C (second compound 10 µM, first compound 1 µM): 22% | viability, T/C (second compound 10 µM, first compound 3.16 µM): 23.6% | viability, T/C (second compound 10 µM, first compound 10 µM): 20.4%
